Test results taken from patent publication US20060069132A1, “Azolecarboxamide herbicides” (priority 2004, published 2006).

Assays:
pigweed = assay: Test B pre-/postemergence herbicide test; assay type: in vivo, Amaranthus retroflexus
Outline: (§1)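 Herbicidal effect was judged by eye on a 0–100 scale after plants stood 13 to 15 days in the greenhouse following pre- or postemergence treatment with surfactant-containing formulations.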

wild oat = assay: Test B postemergence herbicide test; assay type: in vivo, Avena fatua
Outline: (§2)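 After treating 2-leaf paddy plants or 2–18 cm postemergence plants (1 to 4 leaves) with formulated chemical, researchers kept them in a greenhouse for 13–15 days. Effects were judged visually versus controls: 0 indicates none, 100 total control.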

large crabgrass = assay: Test B pre-/postemergence herbicide test; assay type: in vivo, Digitaria sanguinalis
Outline: as §1

corn = assay: Test B pre-/postemergence herbicide test; assay type: in vivo, Zea mays
Outline: as §1

Surinam grass = assay: Test B pre-/postemergence herbicide test; assay type: in vivo, Urochloa decumbens
Outline: as §1

cocklebur = assay: Test B pre-/postemergence herbicide test; assay type: in vivo, Xanthium strumarium
Outline: as §1

giant foxtail = assay: Test B pre-/postemergence herbicide test; assay type: in vivo, Setaria faberi
Outline: as §1

lambsquarters = assay: Test B pre-/postemergence herbicide test; assay type: in vivo, Chenopodium album
Outline: as §1

ducksalad = assay: Test B flooded paddy test; assay type: in vivo, Heteranthera limosa; conditions: scale 0 to 100 (0 no effect, 100 complete control); for Ducksalad plant response rating: 1000 g ai/ha
Outline: (§3)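 Treated at 2-leaf (paddy) or 1–4-leaf, 2–18 cm (postemergence); greenhouse 13–15 d; visual score vs control, 0 none to 100 complete control; dash = not tested.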

morningglory = assay: Test B pre-/postemergence herbicide test; assay type: in vivo, Ipomoea coccinea
Outline: as §1

rice = assay: Test B flooded paddy test; assay type: in vivo, Oryza sativa; conditions: scale 0 to 100 (0 no effect, 100 complete control); for Rice plant response rating: 1000 g ai/ha
Outline: as §3

[1] = test system: small flower umbrella sedge; assay: Test B flooded paddy test; assay type: in vivo, Cyperus difformis; conditions: scale 0 to 100 (0 no effect, 100 complete control); for Sedge, Umbrella plant response rating: 1000 g ai/ha
Outline: as §3

barnyardgrass [2] = assay: Test B pre-/postemergence herbicide test; assay type: in vivo, Echinochloa crus-galli
Outline: as §1

wheat = assay: Test B postemergence herbicide test; assay type: in vivo, Triticum aestivum; set-up: key to Wheat plant response rating: 0 = no effect, 100 = complete control
Outline: as §2

blackgrass = assay: Test B postemergence herbicide test; assay type: in vivo, Alopecurus myosuroides
Outline: as §3

barnyardgrass [3] = assay: Test B flooded paddy test; assay type: in vivo, Echinochloa crus-galli; conditions: scale 0 to 100 (0 no effect, 100 complete control); for Barnyardgrass plant response rating: 1000 g ai/ha
Outline: as §3

[4] = Postemergence, 500 g ai/ha; visual rating after 13 to 15 days, scale 0 (no effect) to 100 (complete control)
[5] = postemergence, 125 g ai/ha; visual rating, scale 0 (no effect) to 100 (complete control)
[6] = preemergence, 125 g ai/ha; 0 to 100 scale, 0 is no effect, 100 is complete control
[7] = Postemergence, 500 g ai/ha, visual rating after 13 to 15 days, scale 0 (no effect) to 100 (complete control)
[8] = Preemergence, 500 g ai/ha, scale 0 to 100
[9] = postemergence, 125 g ai/ha, visual rating, scale 0 (no effect) to 100 (complete control)
[10] = preemergence, 125 g ai/ha, 0 to 100 scale, 0 is no effect, 100 is complete control
[11] = 125 g ai/ha; 0 = no effect, 100 = complete control; preemergence
[12] = 125 g ai/ha; visual rating, scale 0 (no effect) to 100 (complete control); postemergence
[13] = 500 g ai/ha; visual rating, 0 = no effect, 100 = complete control; preemergence
[14] = postemergence, 500 g ai/ha; scale 0 to 100, 0 is no effect, 100 is complete control
[15] = 125 g ai/ha, 0 = no effect, 100 = complete control, preemergence
[16] = 125 g ai/ha, visual rating, scale 0 (no effect) to 100 (complete control), postemergence
[17] = 500 g ai/ha, visual rating, 0 = no effect, 100 = complete control, preemergence
[18] = postemergence, 500 g ai/ha, scale 0 to 100, 0 is no effect, 100 is complete control

CCOC(=O)c1cccc(NC(=O)c2cc(C(C)(C)C)nn2CC)c1C [Compound 88]
10: Corn plant response rating (corn; [9]) | Cocklebur plant response rating (cocklebur; [9])
50: Pigweed plant response rating (pigweed; [5]) | Plant response rating, Cocklebur (cocklebur; [7])
90: Plant response rating, Crabgrass, Large (large crabgrass; [10]) | Foxtail, Giant plant response rating (giant foxtail; [8]) | Barnyardgrass plant response rating (barnyardgrass [2]; [8])
20: Plant response rating, Surinam Grass (Surinam grass; [6])
80: Ducksalad plant response rating (ducksalad; visual rating, 13 to 15 days) | Sedge, Umbrella plant response rating ([1]; visual rating, 13 to 15 days)
60: Plant response rating, Pigweed (pigweed; [4]) | Plant response rating, Crabgrass, Large (large crabgrass; [7]) | Corn plant response rating (corn; [8]) | Plant response rating, Barnyardgrass (barnyardgrass [2]; [7])
30: Crabgrass, Large plant response rating (large crabgrass; [9]) | Foxtail, Giant plant response rating (giant foxtail; [9]) | Barnyardgrass plant response rating (barnyardgrass [2]; [9])
40: Plant response rating, Foxtail, Giant (giant foxtail; [7]) | Rice plant response rating (rice; visual rating, 13 to 15 days)
100: Plant response rating, Pigweed (pigweed; [6]) | Crabgrass, Large plant response rating (large crabgrass; [8]) | Plant response rating, Lambsquarters (lambsquarters; [4]) | Plant response rating, Lambsquarters (lambsquarters; [6])
70: Plant response rating, Corn (corn; [7]) | Plant response rating, Foxtail, Giant (giant foxtail; [10]) | Lambsquarters plant response rating (lambsquarters; [5]) | Plant response rating, Barnyardgrass (barnyardgrass [2]; [10]) | Barnyardgrass plant response rating (barnyardgrass [3]; visual rating, 13 to 15 days)
0: Plant response rating, Oat, Wild (wild oat; [4]) | Oat, Wild plant response rating (wild oat; [5]) | Plant response rating, Corn (corn; [10]) | Plant response rating, Surinam Grass (Surinam grass; [4]) | Surinam Grass plant response rating (Surinam grass; [5]) | Cocklebur plant response rating (cocklebur; [8]) | Plant response rating, Cocklebur (cocklebur; [10]) | Plant response rating, Morningglory (morningglory; [4]) | Morningglory plant response rating (morningglory; [5]) | Plant response rating, Morningglory (morningglory; [6]) | Plant response rating, Wheat (wheat; [4]) | Wheat plant response rating (wheat; [5]) | Plant response rating, Blackgrass (blackgrass; [4]) | Blackgrass plant response rating (blackgrass; [5])

CCn1nc(C(C)(C)C)cc1C(=S)Nc1cc(C(=S)N(C)C)ccc1F [Compound 305]
80: Surinam Grass plant response rating (0 to 100 scale) (Surinam grass; [11]) | Foxtail, Giant plant response rating (0 to 100 scale) (giant foxtail; [15]) | Lambsquarters plant response rating (lambsquarters; [14]) | Ducksalad plant response rating (ducksalad) | Barnyardgrass plant response rating (0 to 100 scale) (barnyardgrass [2]; [15])
100: Pigweed plant response rating (0 to 100 scale) (pigweed; [11]) | Plant response rating, Pigweed (pigweed; [13]) | Plant response rating, Crabgrass, Large (large crabgrass; [17]) | Plant response rating, Surinam Grass (Surinam grass; [13]) | Plant response rating, Foxtail, Giant (giant foxtail; [17]) | Lambsquarters plant response rating (0 to 100 scale) (lambsquarters; [11]) | Plant response rating, Lambsquarters (lambsquarters; [13])
10: Oat, Wild plant response rating (wild oat; [12]) | Corn plant response rating (0 to 100 scale) (corn; [15]) | Cocklebur plant response rating (cocklebur; [16]) | Cocklebur plant response rating (cocklebur; [18]) | Wheat plant response rating (wheat; [14])
50: Cocklebur plant response rating (0 to 100 scale) (cocklebur; [15]) | Lambsquarters plant response rating (lambsquarters; [12])
60: Plant response rating, Corn (corn; [17])
20: Surinam Grass plant response rating (Surinam grass; [14]) | Foxtail, Giant plant response rating (giant foxtail; [16]) | Foxtail, Giant plant response rating (giant foxtail; [18]) | Blackgrass plant response rating (blackgrass; [12])
90: Crabgrass, Large plant response rating (0 to 100 scale) (large crabgrass; [15]) | Sedge, Umbrella plant response rating [1] | Plant response rating, Barnyardgrass (barnyardgrass [2]; [17]) | Barnyardgrass plant response rating (barnyardgrass [3])
30: Oat, Wild plant response rating (wild oat; [14]) | Blackgrass plant response rating (blackgrass; [14])
70: Pigweed plant response rating (pigweed; [14]) | Corn plant response rating (corn; [16]) | Corn plant response rating (corn; [18]) | Plant response rating, Cocklebur (cocklebur; [17]) | Rice plant response rating (rice)
0: Pigweed plant response rating (pigweed; [12]) | Crabgrass, Large plant response rating (large crabgrass; [16]) | Crabgrass, Large plant response rating (large crabgrass; [18]) | Surinam Grass plant response rating (Surinam grass; [12]) | Morningglory plant response rating (0 to 100 scale) (morningglory; [11]) | Morningglory plant response rating (morningglory; [12]) | Plant response rating, Morningglory (morningglory; [13]) | Morningglory plant response rating (morningglory; [14]) | Barnyardgrass plant response rating (barnyardgrass [2]; [16]) | Barnyardgrass plant response rating (barnyardgrass [2]; [18]) | Wheat plant response rating (wheat; [12])

CCCCOC(=O)c1cccc(NC(=O)c2cc(C(C)(C)C)nn2CC)c1 [Compound 86]
80: Lambsquarters plant response rating (lambsquarters; [5]) | Plant response rating, Barnyardgrass (barnyardgrass [2]; [7])
70: Surinam Grass plant response rating (Surinam grass; [5]) | Sedge, Umbrella plant response rating ([1]; visual rating, 13 to 15 days)
50: Rice plant response rating (rice; visual rating, 13 to 15 days) | Barnyardgrass plant response rating (barnyardgrass [2]; [9])
20: Corn plant response rating (corn; [9]) | Cocklebur plant response rating (cocklebur; [9]) | Ducksalad plant response rating (ducksalad; visual rating, 13 to 15 days) | Plant response rating, Blackgrass (blackgrass; [4])
30: Oat, Wild plant response rating (wild oat; [5]) | Plant response rating, Corn (corn; [7]) | Wheat plant response rating (wheat; [5]) | Barnyardgrass plant response rating (barnyardgrass [3]; visual rating, 13 to 15 days)
60: Plant response rating, Oat, Wild (wild oat; [4]) | Crabgrass, Large plant response rating (large crabgrass; [9]) | Plant response rating, Foxtail, Giant (giant foxtail; [7]) | Morningglory plant response rating (morningglory; [5])
100: Plant response rating, Pigweed (pigweed; [4]) | Pigweed plant response rating (pigweed; [5]) | Plant response rating, Surinam Grass (Surinam grass; [4]) | Plant response rating, Cocklebur (cocklebur; [7]) | Plant response rating, Morningglory (morningglory; [4])
10: Blackgrass plant response rating (blackgrass; [5])
40: Foxtail, Giant plant response rating (giant foxtail; [9]) | Plant response rating, Wheat (wheat; [4])
90: Plant response rating, Crabgrass, Large (large crabgrass; [7]) | Plant response rating, Lambsquarters (lambsquarters; [4])
0: Plant response rating, Pigweed (pigweed; [6]) | Crabgrass, Large plant response rating (large crabgrass; [8]) | Plant response rating, Crabgrass, Large (large crabgrass; [10]) | Corn plant response rating (corn; [8]) | Plant response rating, Corn (corn; [10]) | Plant response rating, Surinam Grass (Surinam grass; [6]) | Cocklebur plant response rating (cocklebur; [8]) | Plant response rating, Cocklebur (cocklebur; [10]) | Foxtail, Giant plant response rating (giant foxtail; [8]) | Plant response rating, Foxtail, Giant (giant foxtail; [10]) | Plant response rating, Lambsquarters (lambsquarters; [6]) | Plant response rating, Morningglory (morningglory; [6]) | Barnyardgrass plant response rating (barnyardgrass [2]; [8]) | Plant response rating, Barnyardgrass (barnyardgrass [2]; [10])

CCNC(=O)c1cccc(NC(=O)c2nc(C(C)(C)C)nn2CC)c1 [Compound 446, 3-(1,1-dimethylethyl)-1-ethyl-N-[3-[(ethylamino)carbonyl]phenyl]-1H-1,2,4-triazole-5-carboxamide]
90%: plant injury at 500 g/ha (rice; Oryza sativa, 336 h, 500 g ai/ha, read-out: Rice plant response rating) | pest or weed control at 125 g/ha ([1]; Cyperus difformis, 336 h, 125 g ai/ha, read-out: Sedge, Umbrella plant response rating) | pest or weed control at 500 g/ha ([1]; Cyperus difformis, 336 h, 500 g ai/ha, read-out: Sedge, Umbrella plant response rating) | pest or weed control at 500 g/ha (barnyardgrass [3]; Echinochloa crus-galli, 336 h, 500 g ai/ha, read-out: Barnyardgrass plant response rating)
80%: pest or weed control at 500 g/ha (ducksalad; Heteranthera limosa, 336 h, 500 g ai/ha, read-out: Ducksalad plant response rating) | plant injury at 125 g/ha (rice; Oryza sativa, 336 h, 125 g ai/ha, read-out: Rice plant response rating)
70%: pest or weed control at 125 g/ha (ducksalad; Heteranthera limosa, 336 h, 125 g ai/ha, read-out: Ducksalad plant response rating) | pest or weed control at 125 g/ha (barnyardgrass [3]; Echinochloa crus-galli, 336 h, 125 g ai/ha, read-out: Barnyardgrass plant response rating)
